From patent US7812022B2 (GlaxoSmithKline LLC, priority 2004, dated 2010)
Where two headings read alike, the source gives them in different places.

Assays:
ErbB2 or EGFR = target: T1, ErbB2 or EGFR; test: ErbB family substrate phosphorylation enzyme assay (HTRF), Method A or Method B; type: biochemical
T1 construct: enzymes purified from a baculovirus expression system; Reagent production was conducted essentially as described in Brignola, P. S., et al, (2002) J. Biol. Chem. 277(2): 1576-1585
Outline: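 Baculovirus-expressed EGFR or ErbB2 (0.8 or 10 nM in enzyme mix) phosphorylates biotinylated Peptide C with 20 µM ATP and 0.8 µM peptide (substrate-mix levels), MnCl2, pH 7.5. Reaction ran 90 min at 20 °C with EDTA stop and HTRF anti-phosphotyrosine read. Method A: enzyme added last; Method B: 1 h enzyme–compound preincubation.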

[1] = test system: BT474 and HN5 tumor cell lines; test: Methylene blue growth inhibition assay (cellular Method A); type: cell-based, Human; settings: 3 days, read-out: Activity (Method): growth inhibition IC50 class
Outline: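 Growth inhibition measured by methylene blue staining of biomass (OD 620) after 3 days' compound exposure at 37° C, final DMSO 0.3%. Cell lines: BT474 (10,000/well), HN5 (3,000/well) and Colo205, all in DMEM with 10% FBS; IC50 fitted by nonlinear regression against vehicle-treated wells.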

[2] = Method A: substrate mix added first, reaction started with enzyme mix
[3] = Method B: enzyme mix pre-incubated with compound 1 hour at 20° C., started with substrate mix

IC50 ([1]; Homo sapiens, BT-474, 72 h) [µM]	IC50 [1] [µM]	Compound	Activity (Method): pIC50 class against ErbB2 or EGFR (ErbB2 or EGFR; [2])	Activity (Method): pIC50 class against ErbB2 or EGFR (ErbB2 or EGFR; [3])
0.1 to 1	–	O=C(Nc1cccc(-c2nn3ccccc3c2-c2ccnc(Nc3ccccc3)n2)c1)c1ccco1 [Example 137, Furan-2-carboxylic acid {3-[3-(2-phenylamino-pyrimidin-4-yl)-pyrazolo[1,5-a]pyridin-2-yl]-phenyl}-amide]	+++ (A) (at least one pIC50 measurement of greater than 7 against either ErbB2 or EGFR)	–
0.1 to 1	–	O=C(Nc1cccc(-c2nn3ccccc3c2-c2ccnc(Nc3ccccc3)n2)c1)c1cccnc1 [Example 138, N-{3-[3-(2-Phenylamino-pyrimidin-4-yl)-pyrazolo[1,5-a]pyridin-2-yl]-phenyl}-nicotinamide]	+++ (A) (at least one pIC50 measurement of greater than 7 against either ErbB2 or EGFR)	–
0.1 to 1	–	O=C(Nc1cccc(-c2nn3ccccc3c2-c2ccnc(Nc3ccccc3)n2)c1)c1cccs1 [Example 139]	++ (A) (at least one pIC50 measurement greater than 6 against either ErbB2 or EGFR but no measurement greater than pIC50 of 7)	–
0.1 to 1	–	O=C(Nc1cccc(-c2nn3ccccc3c2-c2ccnc(Nc3ccccc3)n2)c1)c1ccccn1 [Example 140]	++ (A) (at least one pIC50 measurement greater than 6 against either ErbB2 or EGFR but no measurement greater than pIC50 of 7)	–
0.1 to 1	–	Cc1cccc(C(=O)Nc2cccc(-c3nn4ccccc4c3-c3ccnc(Nc4ccccc4)n3)c2)c1 [Example 141, 3-Methyl-N-(3-{3-[2-(phenylamino)-4-pyrimidinyl]pyrazolo[1,5-a]pyridin-2-yl}phenyl)benzamide]	++ (A) (at least one pIC50 measurement greater than 6 against either ErbB2 or EGFR but no measurement greater than pIC50 of 7)	–
0.1 to 1	–	Nc1cccc(C(=O)Nc2cccc(-c3nn4ccccc4c3-c3ccnc(Nc4ccccc4)n3)c2)c1 [Example 143, 3-Amino-N-(3-{3-[2-(phenylamino)-4-pyrimidinyl]pyrazolo[1,5-a]pyridin-2-yl}phenyl)benzamide]	+++ (A) (at least one pIC50 measurement of greater than 7 against either ErbB2 or EGFR)	–
0.1 to 1	–	Nc1ccc(C(=O)Nc2cccc(-c3nn4ccccc4c3-c3ccnc(Nc4ccccc4)n3)c2)cc1 [Example 144, 4-Amino-N-(3-{3-[2-(phenylamino)-4-pyrimidinyl]pyrazolo[1,5-a]pyridin-2-yl}phenyl)benzamide]	+++ (A) (at least one pIC50 measurement of greater than 7 against either ErbB2 or EGFR)	–
< 0.1	–	Cc1ccsc1C(=O)Nc1cccc(-c2nn3ccccc3c2-c2ccnc(Nc3ccccc3)n2)c1 [Example 145, 3-Methyl-N-(3-{3-[2-(phenylamino)-4-pyrimidinyl]pyrazolo[1,5-a]pyridin-2-yl}phenyl)-2-thiophenecarboxamide]	+++ (A) (at least one pIC50 measurement of greater than 7 against either ErbB2 or EGFR)	–
0.1 to 1	–	O=C(Nc1cccc(-c2nn3ccccc3c2-c2ccnc(Nc3cccc(F)c3)n2)c1)c1ccccc1 [Example 146]	–	+++ (B) (at least one pIC50 measurement of greater than 7 against either ErbB2 or EGFR)
0.1 to 1	–	O=C(Nc1cccc(-c2nn3ccccc3c2-c2ccnc(Nc3ccc(N4CCCCC4)c(F)c3)n2)c1)c1c(F)cccc1F [Example 147, 2,6-Difluoro-N-{3-[3-(2-{[3-fluoro-4-(1-piperidinyl)-phenyl]amino}-4-pyrimidinyl)pyrazolo[1,5-a]pyridin-2-yl]phenyl}benzamide]	+++ (A) (at least one pIC50 measurement of greater than 7 against either ErbB2 or EGFR)	–
< 0.1	–	O=C(Nc1cccc(-c2nn3ccccc3c2-c2ccnc(Nc3ccc(N4CCCC4)c(F)c3)n2)c1)c1c(F)cccc1F [Example 148, 2,6-Difluoro-N-{3-[3-(2-{[3-fluoro-4-(1-pyrrolidinyl)-phenyl]amino}-4-pyrimidinyl)pyrazolo[1,5-a]pyridin-2-yl]phenyl}benzamide]	+++ (A) (at least one pIC50 measurement of greater than 7 against either ErbB2 or EGFR)	–
0.1 to 1	–	Cn1cccc1C(=O)Nc1cccc(-c2nn3ccccc3c2-c2ccnc(Nc3ccccc3)n2)c1 [Example 149, N-{3-[3-(2-phenylamino-4-pyrimidinyl)-pyrazolo[1,5-b]pyridin-2-yl]phenyl}-1-methyl-1H-pyrrole-2-carboxamide]	++ (A) (at least one pIC50 measurement greater than 6 against either ErbB2 or EGFR but no measurement greater than pIC50 of 7)	–
0.1 to 1	–	COc1cc(Nc2nccc(-c3c(-c4cccc(NC(=O)c5c(F)cccc5F)c4)nn4c(C(F)(F)F)cccc34)n2)cc(OC)c1OC [Example 151, N-[3-(3-{2-[(3,4,5-Trimethoxyphenyl)amino]-4-pyrimidinyl}-7-trifluoropyrazolo[1,5-b]pyridin-2-yl)phenyl]-2,6-difluorobenzamide]	++ (A) (at least one pIC50 measurement greater than 6 against either ErbB2 or EGFR but no measurement greater than pIC50 of 7)	–
0.1 to 1	–	O=C(Nc1cccc(-c2nn3c(C(F)(F)F)cccc3c2-c2ccnc(Nc3ccccc3)n2)c1)c1c(F)cccc1F [Example 152, N-[3-(3-{2-[Phenylamino]-4-pyrimidinyl}-7-trifluoropyrazolo[1,5-b]pyridin-2-yl)phenyl]-2,6-difluorobenzamide]	–	++ (B) (at least one pIC50 measurement greater than 6 against either ErbB2 or EGFR but no measurement greater than pIC50 of 7)
0.1 to 1	–	O=C(Nc1cccc(-c2nn3c(C(F)(F)F)cccc3c2-c2ccnc(Nc3cccc(F)c3)n2)c1)c1c(F)cccc1F [Example 153, N-[3-(3-{2-[3-Fluorophenylamino]-4-pyrimidinyl}-7-trifluoropyrazolo[1,5-b]pyridin-2-yl)phenyl]-2,6-difluorobenzamide]	–	+++ (B) (at least one pIC50 measurement of greater than 7 against either ErbB2 or EGFR)
0.1 to 1	–	COc1ccc(Nc2nccc(-c3c(-c4cccc(NC(=O)c5c(F)cccc5F)c4)nn4c(C(F)(F)F)cccc34)n2)cc1F [Example 154, N-[3-(3-[2-{3-fluoro4-methoxyphenylamino]-4-pyrimidinyl}-7-trifluoropyrazolo[1,5-b]pyridin-2-yl)phenyl]-2,6-difluorobenzamide]	++ (A) (at least one pIC50 measurement greater than 6 against either ErbB2 or EGFR but no measurement greater than pIC50 of 7)	–
0.1 to 1	–	Cc1cccc2c(-c3ccnc(Nc4cccc(C(F)(F)F)c4)n3)c(-c3cccc(NC(=O)c4c(F)cccc4F)c3)nn12 [Example 155, 2,6-Difluoro-N-{3-[7-methyl-3-(2-{[3-(trifluoro-methyl)phenyl]amino}pyrimidin-4-yl)pyrazolo[1,5-a]pyridin-2-yl]phenyl}benzamide]	++ (A) (at least one pIC50 measurement greater than 6 against either ErbB2 or EGFR but no measurement greater than pIC50 of 7)	–
0.1 to 1	–	COc1ccc(Nc2nccc(-c3c(-c4cccc(NC(=O)c5c(F)cccc5F)c4)nn4c(C)cccc34)n2)cc1F [Example 157, 2,6-Difluoro-N-[3-(3-{2-[(3-fluoro-4-methoxy-phenyl)amino]pyrimidin-4-yl}-7-methylpyrazolo[1,5-a]pyridin-2-yl)phenyl]benzamide]	++ (A) (at least one pIC50 measurement greater than 6 against either ErbB2 or EGFR but no measurement greater than pIC50 of 7)	–
0.1 to 1	–	COc1cccc2c(-c3ccnc(Nc4cccc(C(F)(F)F)c4)n3)c(-c3cccc(NC(=O)c4c(F)cccc4F)c3)nn12 [Example 158, 2,6-Difluoro-N-{3-[7-methoxy-3-(2-{[3-(trifluoro-methyl)phenyl]amino}pyrimidin-4-yl)pyrazolo[1,5-a]pyridin-2-yl]phenyl}benzamide]	++ (A) (at least one pIC50 measurement greater than 6 against either ErbB2 or EGFR but no measurement greater than pIC50 of 7)	–
–	0.1 to 1	N-[3-(3-{2-[4-(4-Cyanophenyl)phenylamino]-4-pyrimidinyl}-7-trifluoropyrazolo[1,5-b]pyridin-2-yl)phenyl]-2,6-difluorobenzamide [Example 93]	++ (A) (at least one pIC50 measurement greater than 6 against either ErbB2 or EGFR but no measurement greater than pIC50 of 7)	–
